The source of these data is DBAASP.

Molecules are shown by their SMILES. In brackets after ≈: the same amount, converted by molar mass.

Common to all, as to assay: ≥ marks a high value that may be exact or a test limit, other limits are often not marked, values filed in µg/mL are converted to µM
The test system of test [1] is Enterobacter cloacae 218R.
The subject of test [2] is Staphylococcus aureus C623.
Test [3] concerns Pseudomonas aeruginosa 198.
In test [4] the test system is Pseudomonas aeruginosa LES400.
Test [5] deals with Pseudomonas aeruginosa PAO1 H103.
Test [6] concerns Klebsiella pneumoniae ESBL 63575.
Test [7] concerns Klebsiella pneumoniae ESBL 61962.
The test system of test [8] is Pseudomonas aeruginosa 213.
Test [9] concerns Enterococcus faecium mic80.
The subject of test [10] is Enterococcus faecalis W61950.
The subject of test [11] is Enterococcus faecium t62764.
Test [12] has as its system Pseudomonas aeruginosa H1027.
The subject of test [13] is Staphylococcus aureus ATCC 25923.
Test [14] relates to Stenotrophomonas maltophilia ATCC 13637.
Test [15] concerns Enterococcus faecalis f43559.
In test [16] the test system is Escherichia coli ESBL 64771.
Test [17] concerns Escherichia coli ESBL 63103.
In the next test the test system is Pseudomonas aeruginosa 9.
Test [18] has as its system Pseudomonas aeruginosa H1030.
The subject of test [19] is Enterococcus faecalis ATCC 29212.
The subject of test [20] is Streptococcus mutans ATCC 25175.
Test [21] has as its system Escherichia coli ATCC 27325.
The subject of test [22] is Cryptococcus neoformans ATCC 34881.
The subject of test [23] is Bacillus subtilis ATCC 62037.
Test [24] concerns Staphylococcus aureus ATCC 15752.
In test [25] the test system is Saccharomyces cerevisiae ATCC 44774.
The test system of test [26] is Pseudomonas putida ATCC 17426.
The test system of test [27] is Salmonella enterica subsp. enterica serovar Enteritidis ATCC 13076.
The test system of test [28] is Candida albicans ATCC 10231.
Test [29] has as its system Staphylococcus aureus ATCC 6538P.
The test system of test [30] is Staphylococcus aureus TK784.
The test system of test [31] is Bacillus subtilis ATCC 6633.
The subject of test [32] is Shigella dysenteriae ATCC 9752.
Test [33] relates to Escherichia coli ATCC 25922.
Test [34] has as its system Staphylococcus epidermidis ATCC 12228.
Test [35] relates to Micrococcus luteus ATCC 10240.
Test [36] relates to Salmonella enterica subsp. enterica serovar Typhimurium ATCC 14028.
In test [37] the test system is Pseudomonas aeruginosa ATCC 27853.
The subject of test [38] is Klebsiella pneumoniae ATCC 10031.

`N=C(N)NCCC[C@H](NC(=O)[C@H](CCCNC(=N)N)NC(=O)[C@@H](N)Cc1ccccc1)C(=O)N[C@@H](Cc1c[nH]c2ccccc12)C(=O)N[C@@H](Cc1c[nH]c2ccccc12)C(=O)N[C@@H](CCCCN)C(=O)N[C@@H](Cc1c[nH]c2ccccc12)C(=O)N[C@@H](Cc1ccccc1)C(=O)N[C@@H](CCCCN)C(=O)O` [FRRWWKWFK]: the MIC is 11.8 µM (≈ 17 µg/mL) in [1]; 1.46 µM (≈ 2.1 µg/mL) in [2]; 1.46 µM (≈ 2.1 µg/mL) in test [3]; 2.85 µM (≈ 4.1 µg/mL) in test [4]; 0.695 µM (≈ 1 µg/mL) in test [5]; 11.8 µM (≈ 17 µg/mL) in test [6]. Besides, the MIC in test [7] is no less than 46.5 µM; in test [8], 2.85 µM (≈ 4.1 µg/mL); in test [9] it was 2.92 µM (≈ 4.2 µg/mL); in test [10], no less than 93.8 µM; in test [11], 2.92 µM (≈ 4.2 µg/mL); in test [12] it was 0.695 µM (≈ 1 µg/mL). The MIC was 0.695 µM (≈ 1 µg/mL) in [13]; 0.417 µM (≈ 0.6 µg/mL) in test [14]; no less than 46.5 µM in test [15]; 2.92 µM (≈ 4.2 µg/mL) in test [16]; 5.77 µM (≈ 8.3 µg/mL) in test [17]; 5.77 µM (≈ 8.3 µg/mL) in the test on Pseudomonas aeruginosa 9. Moreover, the MIC in [18] and in test [19] was 11.8 µM (≈ 17 µg/mL) in each case.

In the case of `CC[C@H](C)[C@H](NC(=O)CNC(=O)[C@H](CCCCN)NC(=O)[C@H](CCCCN)NC(=O)[C@H](CCC(N)=O)NC(=O)[C@H](CC(C)C)NC(=O)[C@H](CCSC)NC(=O)[C@@H](NC(=O)[C@H](CCC(=O)O)NC(=O)CNC(=O)[C@@H](NC(=O)[C@H](Cc1ccccc1)NC(=O)[C@H](C)NC(=O)[C@H](CCCCN)NC(=O)CNC(=O)[C@H](Cc1ccccc1)NC(=O)[C@H](CCCCN)NC(=O)[C@H](CCCCN)NC(=O)[C@H](C)NC(=O)[C@H](CO)NC(=O)[C@H](Cc1cnc[nH]1)NC(=O)[C@H](CCSC)NC(=O)[C@H](C)NC(=O)[C@H](CCCCN)NC(=O)[C@@H]1CCCN1C(=O)[C@H](C)N)C(C)C)[C@@H](C)CC)C(=O)O` [APKAMHSAKKFGKAFVGEIMLQKKGI], the MIC is no less than 45.4 µM in [20]; 22.7 µM (≈ 64 µg/mL) in [21]; 5.68 µM (≈ 16 µg/mL) in test [22]; 22.7 µM (≈ 64 µg/mL) in test [23]; 22.7 µM (≈ 64 µg/mL) in [24]; 11.4 µM (≈ 32 µg/mL) in [25]. Besides, the MIC in test [26] came to 22.7 µM (≈ 64 µg/mL); in [27] it was 11.4 µM (≈ 32 µg/mL); in test [28] it was 11.4 µM (≈ 32 µg/mL).

As for `CC[C@H](C)[C@H](NC(=O)[C@@H]1CCCN1C(=O)[C@H](Cc1c[nH]c2ccccc12)NC(=O)[C@H](CCC(N)=O)NC(=O)[C@H](CC(C)C)NC(=O)CNC(=O)[C@H](C)NC(=O)[C@@H](N)CCCN=C(N)N)C(=O)NCC(=O)N[C@@H](CCCN=C(N)N)C(=O)N[C@@H](CC(C)C)C(=O)N[C@@H](CC(C)C)C(=O)N[C@@H](CCCN=C(N)N)C(=O)N[C@@H](CCCN=C(N)N)C(=O)N[C@@H](CC(C)C)C(=O)N[C@@H](CC(C)C)C(=O)N[C@@H](CCCN=C(N)N)C(=O)N[C@@H](CCCN=C(N)N)C(=O)N[C@@H](CC(C)C)C(=O)N[C@@H](CC(C)C)C(=O)N[C@@H](CCCN=C(N)N)C(=O)O` [RAGLQWPIGRLLRRLLRRLLR], the MIC in [20] came to 0.765 µM (≈ 2 µg/mL); in [21] it was 0.383 µM (≈ 1 µg/mL); in test [22], 0.383 µM (≈ 1 µg/mL); in test [23] it was 0.765 µM (≈ 2 µg/mL); in [24], 0.383 µM (≈ 1 µg/mL); in test [25] it was 0.765 µM (≈ 2 µg/mL). Also, the minimal inhibitory concentration (MIC) in [26], in [27] and in test [28] was 0.765 µM (≈ 2 µg/mL) in each case.

For `CC(C)C[C@H](NC(=O)[C@H](Cc1c[nH]c2ccccc12)NC(=O)[C@H](CCCCN)NC(=O)[C@H](CC(C)C)NC(=O)[C@H](CC(C)C)NC(=O)[C@H](CCCCN)NC(=O)[C@H](CCCCN)NC(=O)[C@H](CC(C)C)NC(=O)[C@H](CC(C)C)NC(=O)[C@@H](N)CCCCN)C(=O)N[C@@H](CCCCN)C(N)=O` [KLLKKLLKWLK], the MIC in test [29] stood at 1.42 µM (≈ 2 µg/mL); in test [30], 5.67 µM (≈ 7.99 µg/mL); in test [31], 1.42 µM (≈ 2 µg/mL); in test [32] it was 1.42 µM (≈ 2 µg/mL); in test [33], 1.42 µM (≈ 2 µg/mL); in [34] it was 1.42 µM (≈ 2 µg/mL). Also, the MIC in test [35] turned out to be 2.84 µM (≈ 4 µg/mL); in test [36], 1.42 µM (≈ 2 µg/mL); in test [37] it was 2.84 µM (≈ 4 µg/mL); in [38] it was 1.42 µM (≈ 2 µg/mL).

In the case of `CC(C)C[C@H](NC(=O)[C@H](CC(C)C)NC(=O)[C@H](CCCCN)NC(=O)[C@H](CCCCN)NC(=O)[C@H](CC(C)C)NC(=O)[C@H](Cc1c[nH]c2ccccc12)NC(=O)[C@H](CCCCN)NC(=O)[C@H](CC(C)C)NC(=O)[C@H](CC(C)C)NC(=O)[C@H](CCCCN)NC(=O)[C@@H](N)CCCCN)C(N)=O` [KKLLKWLKKLL], the MIC was found to be 4.47 µM (≈ 6.3 µg/mL) in test [29]; 2.84 µM (≈ 4 µg/mL) in test [30]; 4.47 µM (≈ 6.3 µg/mL) in [31]; 4.47 µM (≈ 6.3 µg/mL) in [32]; 8.86 µM (≈ 12.5 µg/mL) in test [33]; 4.47 µM (≈ 6.3 µg/mL) in test [34]. The minimal inhibitory concentration (MIC) in [35] was 4.47 µM (≈ 6.3 µg/mL); in test [36], 17.7 µM (≈ 25 µg/mL); in test [37], 17.7 µM (≈ 25 µg/mL); in [38], 4.47 µM (≈ 6.3 µg/mL).

For `CC[C@H](C)[C@H](NC(=O)[C@H](CCCN=C(N)N)NC(=O)[C@H](CCCCN)NC(=O)[C@@H](NC(=O)[C@H](Cc1c[nH]c2ccccc12)NC(=O)[C@H](Cc1c[nH]c2ccccc12)NC(=O)[C@H](Cc1c[nH]c2ccccc12)NC(=O)[C@H](CCCN=C(N)N)NC(=O)[C@@H](N)CC(C)C)[C@@H](C)CC)C(=O)O` [LRWWWIKRI], the MIC in [1] was found to be 27.3 µM (≈ 37 µg/mL); in [2], 3.39 µM (≈ 4.6 µg/mL); in test [3], 13.3 µM (≈ 18 µg/mL); in test [4], 13.3 µM (≈ 18 µg/mL); in [5], 7.08 µM (≈ 9.6 µg/mL); in test [6], 27.3 µM (≈ 37 µg/mL). Further, the minimum inhibitory concentration (MIC) in [7] was no less than 109 µM; in [8], 27.3 µM (≈ 37 µg/mL); in test [9], 3.39 µM (≈ 4.6 µg/mL); in [10], 27.3 µM (≈ 37 µg/mL); in test [11] it was 0.811 µM (≈ 1.1 µg/mL); in test [12], 3.39 µM (≈ 4.6 µg/mL). Also, the MIC in test [13] worked out at 3.39 µM (≈ 4.6 µg/mL); in [14], 1.77 µM (≈ 2.4 µg/mL); in test [15] it was 13.3 µM (≈ 18 µg/mL); in [16], 7.08 µM (≈ 9.6 µg/mL); in test [17] it was 13.3 µM (≈ 18 µg/mL); in the test on Pseudomonas aeruginosa 9, 27.3 µM (≈ 37 µg/mL). In addition, the MIC was found to be 13.3 µM (≈ 18 µg/mL) in [18] and 7.08 µM (≈ 9.6 µg/mL) in test [19].

One may read the MIC as the least concentration at which growth counts as inhibited. Low readings indicate a more susceptible organism, high ones a less susceptible organism.
